Measurements: US20250313575A1, “MACROCYCLES AS LRRK2 INHIBITORS, PHARMACEUTICAL COMPOSITIONS, AND USES THEREOF” (Merck Sharp & Dohme LLC, priority 2022, published 2025)

Target: GST-tagged truncated human mutant G2019S LRRK2 (Homo sapiens (Human), UniProt Q5S007, G2019S)
Test: LRRK2 G2019S Km ATP LanthaScreen assay
Assay type: biochemical
Details: G2019S LRRK2, 134 μM ATP (Km ATP), LRRKtide substrate
Method in brief: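 TR-FRET assay with GST-tagged truncated human G2019S LRRK2 (1.25 nM), preincubated with compound 15 min, then reacted with fluorescein-LRRKtide and 134 μM ATP (Km) in Tris pH 8.5 buffer, 90 min, ambient temperature. Tb-anti-phospho-LRRKtide detection, 520/495 nm ratio; IC50 by 4-parameter logistic fit, top concentration 9.99 μM in DMSO, 10 points.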

Sequence of GST-tagged truncated human mutant G2019S LRRK2 (Q5S007 970-2527 G2019S): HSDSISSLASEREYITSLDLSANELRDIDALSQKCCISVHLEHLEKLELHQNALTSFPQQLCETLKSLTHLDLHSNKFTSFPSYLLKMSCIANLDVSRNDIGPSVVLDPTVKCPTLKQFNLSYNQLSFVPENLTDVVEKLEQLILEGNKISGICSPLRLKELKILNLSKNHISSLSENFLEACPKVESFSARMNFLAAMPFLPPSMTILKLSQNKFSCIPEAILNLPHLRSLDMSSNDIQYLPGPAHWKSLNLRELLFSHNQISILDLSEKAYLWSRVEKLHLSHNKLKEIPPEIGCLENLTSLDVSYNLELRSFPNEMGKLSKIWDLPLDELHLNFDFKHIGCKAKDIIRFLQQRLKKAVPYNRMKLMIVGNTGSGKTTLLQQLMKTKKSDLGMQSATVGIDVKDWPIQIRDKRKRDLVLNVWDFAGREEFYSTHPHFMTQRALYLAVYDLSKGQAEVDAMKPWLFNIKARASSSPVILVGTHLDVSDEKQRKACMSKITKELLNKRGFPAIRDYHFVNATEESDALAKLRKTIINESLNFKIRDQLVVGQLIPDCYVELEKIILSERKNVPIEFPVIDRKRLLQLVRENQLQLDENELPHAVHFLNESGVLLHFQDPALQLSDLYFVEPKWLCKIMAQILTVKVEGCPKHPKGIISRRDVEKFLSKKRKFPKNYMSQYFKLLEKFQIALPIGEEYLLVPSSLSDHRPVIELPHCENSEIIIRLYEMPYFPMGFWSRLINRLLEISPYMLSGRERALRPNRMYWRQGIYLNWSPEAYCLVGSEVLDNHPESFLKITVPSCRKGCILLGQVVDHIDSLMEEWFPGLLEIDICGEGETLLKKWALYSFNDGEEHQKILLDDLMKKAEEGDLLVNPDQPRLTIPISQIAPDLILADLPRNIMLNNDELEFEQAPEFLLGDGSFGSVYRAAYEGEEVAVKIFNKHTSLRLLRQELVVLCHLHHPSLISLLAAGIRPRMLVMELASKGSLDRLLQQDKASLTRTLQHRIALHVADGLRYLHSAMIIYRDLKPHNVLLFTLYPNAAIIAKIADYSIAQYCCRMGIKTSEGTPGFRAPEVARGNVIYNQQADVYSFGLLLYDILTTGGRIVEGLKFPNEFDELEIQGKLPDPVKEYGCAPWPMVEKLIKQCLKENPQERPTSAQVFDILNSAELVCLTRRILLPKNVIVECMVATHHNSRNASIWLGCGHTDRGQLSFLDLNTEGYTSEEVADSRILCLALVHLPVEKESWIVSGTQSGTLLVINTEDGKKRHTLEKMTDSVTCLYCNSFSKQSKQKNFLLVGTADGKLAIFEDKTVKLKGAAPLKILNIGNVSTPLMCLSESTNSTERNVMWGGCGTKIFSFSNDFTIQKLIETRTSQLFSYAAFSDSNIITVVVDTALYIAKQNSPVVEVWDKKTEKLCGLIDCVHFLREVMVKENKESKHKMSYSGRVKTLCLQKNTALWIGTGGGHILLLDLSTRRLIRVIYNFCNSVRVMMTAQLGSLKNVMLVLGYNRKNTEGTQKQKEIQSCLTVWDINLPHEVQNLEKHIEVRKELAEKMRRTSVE

Cc1nn(C2CCC2)c2c1OCCC(C)Nc1nc(ncc1C(F)(F)F)N2 (single isomer, unassigned) [Ex-2.6, (R)- or (S)-1-cyclobutyl-3,7-dimethyl-10-(trifluoromethyl)-1,5,6,7,8,14-hexahydro-9,13-(azeno)pyrazolo[4,3-b][1]oxa[4,6,10]triazacyclotridecine]
LRRK2 pIC50: 9.17

Cn1nc(C2CC2)c2c1OCC1CCC1Nc1nc(ncc1C(F)(F)F)N2 [Ex-1.9, (10aR,12aS)- or (10aS,12aR)-3-cyclopropyl-1-methyl-8-(trifluoromethyl)-1,4,10,10a,11,12,12a,13-octahydro-5,9-(azeno)cyclobuta[k]pyrazolo-[3,4-b][1]oxa[4,6,10]triazacyclo-tridecine]
LRRK2 pIC50: >10.09

CC(C)c1nn(C2CS(=O)(=O)C2)c2c1Nc1ncc(C(F)(F)F)c(n1)N[C@@H]1CC[C@H]1CO2 [Ex-10.1, 3-((10aR,12aR)-3-isopropyl-8-(trifluoromethyl)-10,10a,11,12,12a,13-hexahydro-5,9-(azeno)cyclobuta[k]pyrazolo[3,4-b][1]oxa[4,6,10]triazacyclotridecin-1 (4H)-yl) thietane 1,1-dioxide]
LRRK2 pIC50: >10.09

CC(C)c1nn(C2CCOC2)c2c1Nc1ncc(C(F)(F)F)c(n1)N[C@@H]1CC[C@H]1CO2 (stereo partly drawn) [Ex-1.18, (10aR,12aR)-3-isopropyl-1-((R)- or (10aR,12aR)-3-isopropyl-1-((S)-tetrahydrofuran-3-yl)-8-(trifluoromethyl)-1,4,10,10a,11,12,12a,13-octahydro-5,9-(azeno)cyclobuta[k]pyrazolo[3,4-b][1]oxa[4,6,10]triazacyclotridecine]
LRRK2 pIC50: >10.09

FC(F)(F)c1cnc2nc1NC1CCC1COc1c(C3COC3)nn(C3CCC3)c1N2 [Ex-2.71, (10aR,12aR)- or (10aS,12aS)-3-cyclobutyl-1-(oxetan-3-yl)-8-(trifluoromethyl)-3,4,10,10a,11,12,12a,13-octahydro-5,9-(azeno)cyclobuta[k]pyrazolo[4,3-b][1]oxa[4,6,10]triazacyclotridecine]
LRRK2 pIC50: 8.24

O[C@@H]1COCC1n1nc(C2CC2)c2c1OC[C@H]1CC[C@@H]1Nc1nc(ncc1C(F)(F)F)N2 (single isomer, unassigned) [Ex-6.4, (3R,4S)-4-((10aR,12aR)- or (3R,4S)-4-((10aS,12aS)- or (3S,4R)-4-((10aR,12aR)- or (3S,4R)-4-((10aR,12aR)-3-cyclopropyl-8-(trifluoromethyl)-10,10a,11,12,12a,13-hexahydro-5,9-(azeno)cyclobuta[k]pyrazolo[3,4-b][1]oxa[4,6,10]triazacyclotridecin-1 (4H)-yl)tetrahydrofuran-3-ol]
LRRK2 pIC50: >10.09

Cc1nn(C)c2c1OC[C@H]1CCC(C1)Nc1nc(ncc1C(F)(F)F)N2 [Ex-2.88, (5^1R,5^3S)-1^1,1^3-dimethyl-3^5-(trifluoromethyl)-1^1H-7-oxa-2,4-diaza-3(2,4)-pyrimidina-1(5,4)-pyrazola-5(1,3)-cyclopentanacycloheptaphane]
LRRK2 pIC50: 7.64

CC(C)c1nn(C(C)(C)CO)c2c1N(C)c1ncc(C(F)(F)F)c(n1)N[C@H](C)CCO2 [Ex-9.1, (R)-2-(3-isopropyl-4,11-dimethyl-8-(trifluoromethyl)-10,11,12,13-tetrahydro-5,9-(azeno)pyrazolo[3,4-b][1]oxa[4,6,10]triazacyclotridecin-1 (4H)-yl)-2-methylpropan-1-ol]
LRRK2 pIC50: 6.11

CC(C)c1n[nH]c2c1Nc1ncc(C(F)(F)F)c(n1)N[C@@H]1CC[C@H]1CO2 [Ex-1.22, (10aR,12aR)-3-isopropyl-8-(trifluoromethyl)-1,4,10,10a,11,12,12a,13-octahydro-5,9-(azeno)cyclobuta[k]pyrazolo[3,4-b][1]oxa[4,6,10]triazacyclotridecine]
LRRK2 pIC50: >10.09

Cc1nn(C2CCC2)c2c1OC[C@@H]1COCC[C@H]1Nc1nc(ncc1C(F)(F)F)N2 [Ex-2.33, (4aR,16aS)- or (4aS,16aR)-12-cyclobutyl-14-methyl-7-(trifluoromethyl)-3,4,4a,5,11,12,16,16a-octahydro-1H-6,10-(azeno)pyrano[4,3-k]pyrazolo[4,3-b][1]oxa[4,6,10]triazacyclotridecine]
LRRK2 pIC50: 9.11

FC(F)(F)c1cnc2nc1NC1CCC1COc1c(C3CCOC3)nn(C3CCC3)c1N2 [Ex-2.64, (10aR,12aR)-3-cyclobutyl-1-((R)-(10aR,12aR)-3-cyclobutyl-1-((S)-(10aS,12aS)-3-cyclobutyl-1-((R)-(10aS,12aS)-3-cyclobutyl-1-((S)-tetrahydrofuran-3-yl)-8-(trifluoromethyl)-3,4,10,10a,11,12,12a,13-octahydro-5,9-(azeno)cyclobuta[k]pyrazolo[4,3-b][1]oxa|4,6,10]triazacyclotridecine]
LRRK2 pIC50: >10.09

Cc1nn(C2CCC2)c2c1OC[C@@H]1COC[C@H]1Nc1nc(ncc1C(F)(F)F)N2 (single isomer, unassigned) [Ex-2.27, (3aR,15aR)- or (3aS,15aS)-11-cyclobutyl-13-methyl-6-(trifluoromethyl)-2,3,3a,4,10,11,15,15a-octahydro-5,9-(azeno)furo[3,2-k]pyrazolo[4,3-b][1]oxa[4,6,10]triazacyclotridecine]
LRRK2 pIC50: 6.47

COC1CCC1n1nc(C)c2c1Nc1ncc(C(F)(F)F)c(n1)NC1COCC1CO2 [Ex-2.38, (10aS,13aS)-3-((1R,2R)-(10aS,13aS)-3-((1S,2R)-(10aS,13aS)-3-((1R,2S)-(10aS,13aS)-3-((1R,2R)-(10aR,13aR)-3-((1S,2R)-(10aR,13aR)-3-((1R,2S)-2-methoxycyclobutyl)-1-methyl-8-(trifluoromethyl)-3,4,10a,11,13a,14-hexahydro-10H,13H-5,9-(azeno)furo[3,4-k]pyrazolo[4,3-b][1]oxa[4,6,10]triazacyclotridecine]
LRRK2 pIC50: 6.13

Cc1nn(C2CCOC2)c2c1OC[C@@H]1CC[C@H]1Nc1nc(ncc1C(F)(F)F)N2 (stereo partly drawn) [Ex-2.74, (10aR,12aR)-1-methyl-3-((S)- or (10aR,12aR)-1-methyl-3-((R)-tetrahydrofuran-3-yl)-8-(trifluoromethyl)-3,4,10,10a,11,12,12a,13-octahydro-5,9-(azeno)cyclobuta[k]pyrazolo[4,3-b][1]oxa[4,6,10]triazacyclotridecine]
LRRK2 pIC50: >10.09

Cn1nc(C(F)(F)F)c2c1Nc1cc(c(Cl)cn1)N[C@@H]1COC[C@H]1CO2 [Ex-13.9, (10aS,13aS)-8-chloro-3-methyl-1-(trifluoromethyl)-3,4,10a,11,13a,14-hexahydro-10H,13H-5,9-(metheno)furo[3,4-k]pyrazolo[4,3-b][1]oxa[4,6,10]triazacyclotridecine]
LRRK2 pIC50: 8.49

CC(C)n1nc(C2C[C@@H]2C#N)c2c1Nc1ncc(C(F)(F)F)c(n1)N[C@@H]1COC[C@H]1CO2 (single isomer, unassigned) [Ex-2.44, (1S,2S)- or (1R,2R)-2-((10aS,13aS)-3-isopropyl-8-(trifluoromethyl)-3,4,10a,11,13a,14-hexahydro-10H,13H-5,9-(azeno)furo[3,4-k]pyrazolo[4,3-b][1]oxa[4,6,10]triazacyclotridecin-1-yl)cyclopropane-1-carbonitrile]
LRRK2 pIC50: 8.80

Cc1nn(C2CCC2)c2c1OC[C@@H]1CC[C@H]1Nc1cc(ncc1F)N2 [Ex-13.7, (10aR,12aR)-3-cyclobutyl-8-fluoro-1-methyl-3,4,10,10a,11,12,12a,13-octahydro-5,9-(metheno)cyclobuta[k]pyrazolo[4,3-b][1]oxa[4,6,10]triazacyclotridecine]
LRRK2 pIC50: 5.02

CC(C)(C#N)c1nn(C2CCC2)c2c1OC[C@H]1CC[C@@H]1Nc1nc(ncc1C(F)(F)F)N2 [Ex-2.52, 2-((10aS,12aS)- or 2-((10aR,12aR)-3-cyclobutyl-8-(trifluoromethyl)-3,4,10,10a,11,12,12a,13-octahydro-5,9-(azeno)cyclobuta[k]pyrazolo[4,3-b][1]oxa[4,6,10]triazacyclotridecin-1-yl)-2-methylpropanenitrile]
LRRK2 pIC50: 5.96

Cn1nc(C2CC2)c2c1OCC1CCC1Nc1nc(ncc1C(F)(F)F)N2 [Ex-1.11, (10aR,12aR)- or (10aS,12aS)-3-cyclopropyl-1-methyl-8-(trifluoromethyl)-1,4,10,10a,11,12,- 12a,13-octahydro-5,9-(azeno)cyclobuta[k]pyrazolo[3,4-b][1]oxa[4,6,10]triazacyclotridecine]
LRRK2 pIC50: >10.09

Cc1nn(C)c2c1OCC1(CC1)C(C)Nc1nc(ncc1C(F)(F)F)N2 (single isomer, unassigned) [Ex-2.15, (R)- or (S)-1′,3′,7′-trimethyl-10′-(trifluoromethyl)-1′,7′,8′,14′-tetrahydro-5′H-spiro[cyclopropane-1,6′-[9,13](azeno)pyrazolo[4,3-b][1]oxa[4,6,10]triazacyclotridecine]]
LRRK2 pIC50: 7.44

Cc1nn2c(c1C)Nc1ncc(C(F)(F)F)c(n1)N[C@@H](C)CCC2 (single isomer, unassigned) [Ex-16.2, 8,14,15-Trimethyl-5-(trifluoromethyl)-8,9,10,11-tetrahydro-1H,7H-2,6-(azeno)pyrazolo[1,5-a][1,3,5,9]tetraazacyclotridecine]
IC50 (read-out: LRRK2 pIC50 (converted)): 0.631 nM

FC(F)(F)c1cnc2nc1NC1CCC1COc1c(C3CCOC3)nn(C3CCC3)c1N2 [Ex-2.65, (10aR,12aR)-3-cyclobutyl-1-((R)-(10aR,12aR)-3-cyclobutyl-1-((S)-(10aS,12aS)-3-cyclobutyl-1-((R)-(10aS,12aS)-3-cyclobutyl-1-((S)-tetrahydrofuran-3-yl)-8-(trifluoromethyl)-3,4,10,10a,11,12,12a,13-octahydro-5,9-(azeno)cyclobuta[k]pyrazolo[4,3-b][1]oxa[4,6,10]triazacyclotridecine]
LRRK2 pIC50: 6.59
